{
  "source": "patent US20200306266A1",
  "about": "“SOLID DISPERSION OF DUTASTERIDE, METHOD FOR PRODUCING SAME, AND PHARMACEUTICAL COMPOSITION COMPRISING SAME” (KOREA PRIME PHARM CO., LTD., priority 2017, published 2020)",
  "assay": "Storage stability, related substance test",
  "type": "physicochemical",
  "conditions": "Raw material",
  "protocol": "Evaluation of Storage Stability of the Preparations\nThe storage stabilities of the preparations were evaluated according to the test criteria for related substances.",
  "data": [
    {"smiles": "C[C@]12C=CC(=O)N[C@@H]1CC[C@@H]1[C@@H]2CC[C@]2(C)[C@@H](C(=O)Nc3cc(C(F)(F)F)ccc3C(F)(F)F)CC[C@@H]12", "note": "[Dutasteride, 17β-N-[2,5-bis(trifluoromethyl)]phenylcarbamoyl-4-aza-5α-androst-1-en-3-one]", "values": [
      {"measurement": "Judgement", "value": "Suitable"}
    ]}
  ]
}
